The nature of data set [1]: Simultaneous loading of cytarabine and daunorubicin into preformed DSPC/DSPG/Cholesterol (70:20:10) liposomes, effect of temperature. The class given is physicochemical. As to conditions: for loading and retention in liposomes: 40° C., 100 mM Cu(II)gluconate pH 7.4 inside, FIG. 1A. On the procedure:
(§1) Lipids were dissolved in chloroform:methanol:water (95:4:1 vol/vol/vol) and subsequently dried under a stream of nitrogen gas and placed in a vacuum pump to remove solvent. Unless otherwise specified, trace levels of radioactive lipid ^14C-DPPC was added to quantify lipid during the formulation process. The resulting lipid film was placed under high vacuum for a minimum of 2 hours. The lipid film was hydrated in the solution indicated to form multilamellar vesicles (MLVs). The resulting preparation was extruded 10 times through stacked polycarbonate filters with an extrusion apparatus (Lipex Biomembranes, Vancouver, BC) to achieve a mean liposome size between 80 and 150 nm. All constituent lipids of liposomes are reported in mole %.
(§2) At various time points after initiation of drug loading, aliquots were removed and passed through a Sephadex® G-50 spin column to separate free from encapsulated drug. To a specified volume of eluant, Triton X-100 or N-ocyl beta-D-glucopyranoside (OGP) was added to solubilize the liposomes. Following addition of detergent, the mixture was heated to the cloud point of the detergent and allowed to cool to room temperature before measurement of the absorbance or fluorescence. Drug concentrations were calculated by comparison to a standard curve. Lipid levels were measured by liquid scintillation counting.
Lipid films of DSPC/DSPG/Cholesterol at a mole ratio of 70:20:10 were prepared as described above in the method section. The lipid films were hydrated in 100 mM Cu(II)gluconate adjusted to pH 7.4 with triethanolamine (TEA) and extruded at 70° C. The liposomes were buffer exchanged into 300 mM sucrose, 20 mM phosphate, 1 mM EDTA (SPE), pH 7.4 by crossflow dialysis to remove any copper(II)gluconate from the extraliposomal solution. Prior to addition of drugs, the liposomes were preheated to the appropriate loading temperature for one minute. […] Aliquots were removed and analyzed for drug and lipid content at designated time intervals.

Data set [2] is described as follows: Simultaneous loading of cytarabine and daunorubicin into DSPC/DSPG/Cholesterol liposomes, effect of internal Cu(II)gluconate concentration. As to conditions: 50° C.; for daunorubicin loading (percent encapsulation): FIG. 2B. The data set is classed as physicochemical. As for the experimental part: as §1, §2
Lipid films of DSPC/DSPG/Cholesterol at a mole ratio of 70:20:10 were prepared as described above in the method section. The lipid films were hydrated in the designated Cu(II)gluconate concentration and adjusted to pH 7.0 with triethanolamine (TEA). The liposomes were buffer exchanged into 300 mM sucrose, 20 mM sodium phosphate, pH 7.0 by crossflow dialysis to remove any copper(II)gluconate from the extraliposomal solution. Prior to addition of drugs, the liposomes were diluted in SPE and preheated at 50° C. for one minute. […] Aliquots were removed and analyzed for drug and lipid content at designated time intervals. The extent of daunorubicin loading was determined spectrophotometrically and cytarabine and lipid levels were determined by liquid scintillation counting.

Data set [3] is described as follows: Simultaneous loading of FUDR and daunorubicin into preformed DSPC/DSPG/Cholesterol liposomes. The data set is classed as physicochemical. As to conditions: 50° C.; for loading in liposomes: 100 mM Cu(II)gluconate pH 7.0, FIG. 3; for retention during the course of the experiment: FIG. 3. On the procedure:
as §2
FUDR and daunorubicin were loaded at 50° C. into pre-formed DSPC/DSPG/Cholesterol liposomes (70:20:10) containing 100 mM Cu(II)gluconate adjusted to pH 7.0 with triethanolamine (TEA). The liposomes were buffer exchanged into 300 mM sucrose, 40 mM phosphate, 1 mM EDTA, pH 7.0 by crossflow dialysis to remove any copper(II)gluconate from the extraliposomal solution. Prior to addition of drugs, the liposomes were diluted in SPE and preheated at 50° C. for one minute. FUDR (with trace amounts of ^3H-FUDR) and daunorubicin were combined then added simultaneously to the pre-heated liposomes. FUDR was added at a drug concentration of 60 μmol/mL and daunorubicin was added at a drug-to-lipid mole ratio of 0.1:1. […] Aliquots were removed and analyzed for drug and lipid content at designated time intervals. The extent of daunorubicin loading was determined spectrophotometrically and FUDR and lipid levels were determined by liquid scintillation counting.

A short description of data set [4]: Simultaneous loading of daunorubicin and cytarabine into DMPC/Cholesterol liposomes by citrate pH-gradient. As to conditions: 45° C. versus room temperature or 40° C., 300 mM citrate pH 4 inside, FIG. 5. The data set is classed as physicochemical. As for the experimental part: as §2
Aliquots were removed and analyzed for drug and lipid content at designated time intervals.

A short description of data set [5]: Simultaneous loading of gemcitabine and doxorubicin into preformed liposomes. The data set is classed as physicochemical. As to conditions: for loading and retention in liposomes: 60° C., DSPC/DSPG/Cholesterol 70:20:10, FIG. 4C; for simultaneous loading in high cholesterol-containing liposomes: DMPC/Cholesterol liposomes. On the procedure:
as §2
Gemcitabine and doxorubicin were loaded into DSPC/DSPG/Cholesterol liposomes at 37° C., 50° C. and 60° C. […] The lipid films were hydrated in 100 mM Cu(II)gluconate, adjusted to pH 7.4 with triethanolamine (TEA) and extruded at 70° C. The liposomes were buffer exchanged into HBS, pH 7.4 by crossflow dialysis. Prior to addition of drugs, the liposomes were preheated to the appropriate loading temperature for one minute. Gemcitabine (with tracer amounts of ^3H-gemcitabine) and doxorubicin were combined then added simultaneously to the pre-heated liposomes. Gemcitabine was added to a drug concentration of 30 μmol/mL and doxorubicin was added to a drug concentration of 33 μmol/mL. […] Aliquots were removed and analyzed for drug and lipid content at designated time intervals. The extent of doxorubicin loading was determined spectrophotometrically and gemcitabine and lipid levels were determined by liquid scintillation counting.

The nature of data set [6]: Simultaneous loading of FUDR and cpt-11 into DSPC/Cholesterol (high-cholesterol) liposomes. The data set is classed as physicochemical. As to conditions: 50° C.; for loading in liposomes: DSPC/Cholesterol, 100 mM Cu(II)gluconate pH 7.0; for drug ratio of FUDR-to-cpt-11 during the course of the experiment: FIG. 6. As for the experimental part: as §2
Lipid films of DSPC/Cholesterol at a mole ratio of 55:45 were prepared as previously described and then hydrated in 100 mM Cu(II)gluconate, adjusted to pH 7.0 with triethanolamine (TEA). The liposomes were buffer exchanged into SPE, pH 7.0. Prior to addition of drugs, the liposomes were preheated to 50° C. for one minute. FUDR (with tracer amounts of ^3H-FUDR) and cpt-11 were combined then added simultaneously to the pre-heated liposomes. FUDR was added to a final drug concentration of 110 μmol/mL and cpt-11 was added to a final drug concentration of 7.5 μmol/mL. The liposomes and drugs were incubated for one hour to allow for the passive uptake of FUDR concurrent with the active uptake of Irinotecan. Aliquots were removed and analyzed for drug and lipid content at designated time intervals. The extent of cpt-11 loading was determined spectrophotometrically and FUDR and lipid levels were determined by liquid scintillation counting.

Data set [7] can be described thus: Simultaneous loading of irinotecan and floxuridine into low cholesterol DSPC/DSPG/Cholesterol liposomes (data not shown). The class given is physicochemical. As to conditions: low cholesterol-containing DSPC/DSPG/Cholesterol liposomes.
For data set [8] the following is noted: passive then Na+/K+ gradient with valinomycin; cited from earlier work.
For data set [9] the following is noted: co-loaded with mitoxantrone in a single liposome; cited from earlier work.
[10] abbreviates: 37° C., DSPC/DSPG/Cholesterol 70:20:10, FIG. 4A.
Setting [11] is: 50° C., DSPC/DSPG/Cholesterol 70:20:10, FIG. 4B.

`COc1cccc2c1C(=O)c1c(O)c3c(c(O)c1C2=O)C[C@@](O)(C(C)=O)C[C@@H]3O[C@H]1C[C@H](N)[C@H](O)[C@H](C)O1` [daunorubicin]: in data set [1], the “loading and retention in liposomes” value was “efficiently loaded and retained”. Further, in data set [1] (50° C., FIG. 1B), the loading in liposomes entry is “load to adequate levels” and the “retention in liposomes during the experiment” value is “effectively retained”. Moreover, in data set [1] (60° C., FIG. 1C), the loading in liposomes entry is on record as “loads at this temperature” and the retention in liposomes entry is on record as “not well-retained”. Besides, the “daunorubicin loading (percent encapsulation)” value in data set [2] (25 mM copper gluconate) is “compromised”. The “daunorubicin loading (percent encapsulation)” value in data set [2] (100 mM, 75 mM and 50 mM copper gluconate) is on record as “sufficient”. Also, in [3], the loading in liposomes result is given as “loaded to sufficient levels” and the “retention during the course of the experiment” value is “well maintained”. Besides, in data set [4], the simultaneous loading efficiency entry is listed as “more efficient”.
Turning to `COc1cccc2c1C(=O)c1c(O)c3c(c(O)c1C2=O)C[C@@](O)(C(=O)CO)C[C@@H]3O[C@H]1C[C@H](N)[C@H](O)[C@H](C)O1` [doxorubicin], the figures for the loading in liposomes result in data set [5] (setting [10]) and in data set [5] (setting [11]) were “did not load to sufficient levels” and “superior to the gemcitabine loading”, respectively. Also, in data set [5], the “loading and retention in liposomes” value is “Optimal loading and retention”. Moreover, the “simultaneous loading in high cholesterol-containing liposomes” value in data set [5] is “hindered by aggregation”.
As for `Nc1ccn([C@@H]2O[C@H](CO)[C@@H](O)C2(F)F)c(=O)n1` [gemcitabine, Gemcitabine], the loading in liposomes result in [5] (setting [10]) is reported as “could load effectively”. The loading in liposomes entry in data set [5] (setting [11]) is “load to minimal levels and then quickly leaks”. Besides, in data set [5], the “loading and retention in liposomes” value is “Optimal loading and retention”; the “simultaneous loading in high cholesterol-containing liposomes” value is “hindered by aggregation”.
For the compound `CCc1c2c(nc3ccc(OC(=O)N4CCC(N5CCCCC5)CC4)cc13)-c1cc3c(c(=O)n1C2)COC(=O)[C@]3(O)CC` [cpt-11, irinotecan], the loading in liposomes entry is “effectively loaded” in data set [6] and “sufficient” in [7]. The “drug ratio of FUDR-to-cpt-11 during the course of the experiment” value in data set [6] is recorded as “maintained at a sufficient level”.
As for `CN(Cc1cnc2nc(N)nc(N)c2n1)c1ccc(C(=O)N[C@@H](CCC(=O)O)C(=O)O)cc1` [methotrexate], the available drug encapsulated in [8] was 33%.
Turning to `CC[C@]1(O)C[C@H]2CN(CCc3c([nH]c4ccccc34)[C@@](C(=O)OC)(c3cc4c(cc3OC)N(C=O)[C@H]3[C@@](O)(C(=O)OC)[C@H](OC(C)=O)[C@]5(CC)C=CCN6CC[C@]43[C@@H]65)C2)C1` [vincristine], the “release of entrapped drug in vivo” value in data set [9] was “rapid release”.
With `O=c1[nH]c(=O)n([C@H]2C[C@H](O)[C@@H](CO)O2)cc1F` [FUDR, Floxuridine], in data set [3], the loading in liposomes result is reported as “loaded to sufficient levels” and the “retention during the course of the experiment” value is on record as “well maintained”. For the same compound, in data set [6], the loading in liposomes result is on record as “effectively loaded” and the “drug ratio of FUDR-to-cpt-11 during the course of the experiment” value is “maintained at a sufficient level”. Moreover, in data set [7], the loading in liposomes entry is listed as “sufficient”.
As to `Nc1ccn([C@@H]2O[C@H](CO)[C@@H](O)[C@@H]2O)c(=O)n1` [cytarabine], the “loading and retention in liposomes” value in data set [1] was “less than desirable”. Moreover, in data set [1] (50° C., FIG. 1B), the loading in liposomes entry is reported as “load to adequate levels” and the “retention in liposomes during the experiment” value is listed as “effectively retained”. Besides, the loading in liposomes entry in [1] (60° C., FIG. 1C) is “compromised compared to loading at 50 °C”. Besides, the “cytarabine loading during simultaneous uptake of daunorubicin” value in data set [2] (25, 50, 75 and 100 mM Cu(II)gluconate, FIG. 2A) is “sufficient”. The “extent of cytarabine loading” value in data set [2] (25 and 50 mM versus 75 mM and 100 mM Cu(II)gluconate, FIG. 2A) was “improved”.
